In ChEMBL document CHEMBL1151322, “Phycomysterols and other sterols from the fungus Phycomyces blakesleeanus” (J Nat Prod, 1998):
In brackets after ≈: the same amount, converted by molar mass.

What was measured:
HT-29 = assay: Antitumor activity against human HT-29 cells; type: functional, cell-based
P388 = assay: Antitumor activity against mouse P388 cells; type: functional, cell-based
SK-MEL-28 = assay: Antitumor activity against human SK-MEL-28 cells; type: functional, cell-based
A549 = assay: Antitumor activity against human A549 cells; type: functional, cell-based
[1] = Antitumor activity against mouse SCHABEL cells; type: functional, cell-based
[2] = system: Human immunodeficiency virus; assay: Antiviral activity against HIV at 0.64 ug/well; type: functional

C=C(CC[C@@H](C)[C@H]1CC[C@H]2c3ccc4c(c3CC[C@]12C)CC[C@H](O)C4)C(C)C [PHYCOMYSTEROL A]
IC50 (HT-29): 10 µg/mL (≈ 26.3 µM) | IC50 (P388): 5 µg/mL (≈ 13.1 µM) | IC50 (SK-MEL-28): 10 µg/mL (≈ 26.3 µM) | IC50 (A549): 10 µg/mL (≈ 26.3 µM) | IC50 [1]: 5 µg/mL (≈ 13.1 µM) | Activity [2]: 64%
